Consider 32 compounds from patent publication US20220289719A1, “HETEROCYCLIC COMPOUNDS AS MNK INHIBITORS” (NANJING INNOCARE PHARMA TECH CO., LTD., priority 2017, published 2022).

Structures can show the parent of a compound that is named as a salt.

The target in the assay is T1, Human recombinant full-length MNK1 protein (Homo sapiens, UniProt Q9BUB5).
T1 construct: Human recombinant full-length MNK1 protein; purchased Thermo PR9138A
Kind of assay: MNK1 inhibitory activity assay (ADP-Glo in vitro kinase assay). The class given is biochemical. The note with it: 10 concentration points. The procedure:
MNK1 Inhibitory Activity Assay: Evaluation of the effects of compounds of the invention on […] (MNK1) activity using in vitro kinase assays. The experimental methods are summarized as follows: The in vitro activity of MNK1 was determined by measuring the level of ADP produced in the kinase reaction using the ADP-Glo Kinase Assay Kit. The reaction buffer consisted of the following components: 50 mM HEPES, pH 7.5, 10 mM MgCl2, 1 mM EGTA, 0.01% Brij35. Human recombinant full-length MNK1 protein (Thermo, Cat. No. PR9138A) was diluted with a reaction buffer to a 3.13 ng/uL kinase solution. The substrate reaction solution consisted of a substrate diluted to 0.75 mg/ml in reaction buffer ([…], available from […] Domestic Company), 2250 uM ATP, the ADP-Glo reagent and kinase assay solution from Promega kit (Promega, V9102). […] If the compound IC50 value is very low, the initial concentration of the compound can be lowered. To a 384-well assay plate (Thermo, Cat. No. 264706) were added 1 uL of compound solution and 2 uL of MNK1 kinase solution. The mixture was mixed well and incubated for 30 minutes at room temperature; then 2 uL of substrate reaction solution was added, the reaction mixture was incubated for 120 minutes at room temperature. The reaction was terminated after an equal volume of 5uLADP-Glo solution was added, and the remaining ATP was completely consumed. After mixing for 60 minutes at room temperature, 10 ul of the kinase assay solution was added, and the mixture was uniformly mixed, and allowed to stand at room temperature for 40 minutes in the dark. The detection solution converts ADP into new ATP through coupled luciferase/luciferin, and ATP is converted into optical signal by Ultr-GloTM luciferase, which can be detected by Envision. The intensity of the light signal is proportional correlated with the amount of ADP produced in the kinase reaction, therefore, the activity of MNK1 kinase can be determined. In this experiment, the group without protein was used as a negative control (100% inhibition). The group with protein but without compounds was used as a positive control (0% inhibition).
(ADP-Glo first removes unused ATP, then detects ADP through luciferase.)

T1 sequence (Q9BUB5 whole entry): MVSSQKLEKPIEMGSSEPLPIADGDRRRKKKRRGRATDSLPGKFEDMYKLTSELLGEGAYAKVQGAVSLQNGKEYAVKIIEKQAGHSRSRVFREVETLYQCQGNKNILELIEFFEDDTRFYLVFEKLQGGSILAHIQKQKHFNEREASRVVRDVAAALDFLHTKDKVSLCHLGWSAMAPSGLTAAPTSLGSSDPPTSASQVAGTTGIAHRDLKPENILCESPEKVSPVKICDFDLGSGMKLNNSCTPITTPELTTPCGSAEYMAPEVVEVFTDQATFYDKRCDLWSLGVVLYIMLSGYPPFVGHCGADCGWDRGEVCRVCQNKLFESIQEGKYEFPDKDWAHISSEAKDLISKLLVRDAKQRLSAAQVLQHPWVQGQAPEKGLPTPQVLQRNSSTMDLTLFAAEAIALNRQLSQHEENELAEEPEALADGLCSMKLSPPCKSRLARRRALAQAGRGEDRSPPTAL

Turning to `COCCOc1cncnc1Nc1cc2cn[nH]c2cc1OC` [Compound 53], the IC50 – broadly, the point on the concentration scale where inhibition reaches its midpoint – worked out at 22.8 nM.

As to `COc1cc2[nH]ncc2cc1Nc1ncncc1OCCO` [Compound 54, 5-(5-(2-Hydroxyethoxy)pyrimidin-4-yl) amino)-6-methoxy-1H-indazole formate], the half-maximal inhibitory concentration (IC50) came to 34.3 nM.

As for `COc1cc2[nH]ncc2cc1Nc1ncncc1OCCN1CCOCC1` [Compound 55, 5-(5-(2-(4-Morpholine)ethoxy)pyrimidin-4-yl) amino)-6-methoxy-1H-indazole formate], the IC50 turned out to be 187 nM.

In the case of `CCOc1cncnc1Nc1cc2cn[nH]c2cc1OC` [Compound 56, 5-(5-Ethoxypyrimidin-4-yl) amino)-6-methoxy-1H-indazole formate], the IC50 was 19.8 nM.

Consider `COc1cc2[nH]ncc2cc1Nc1ncncc1Nc1ccccc1` [Compound 57, 5-(5-Anilinopyrimidin-4-yl) amino)-6-methoxy-1H-indazole formate], for which the IC50 stood at 323 nM.

Consider `COc1cc2[nH]ncc2cc1Nc1ncnc2[nH]cnc12` [Compound 58, N-(6-Methoxy-1H-indazol-5-yl)-purin-6-amine], for which the 50% inhibitory concentration (IC50) stood at 6.1 nM.

As for `COc1cc2[nH]ncc2cc1Nc1ncnc2c1ncn2C` [Compound 59, N-(6-Methoxy-1H-indazol-5-yl)-9-methyl-9H-purin-6-amine], the 50% inhibitory concentration (IC50) amounted to 432 nM.

Regarding `COc1cc2c(cc1Nc1cc(NC(=O)C3CC3)ncn1)ncn2C(=O)OC(C)(C)C` [Compound 60, 1-tert-butoxycarbonyl-5-(6-cyclopropionamidopyrimidin-4-ylamino)-6-methoxybenzimidazole], the IC50 worked out at 792 nM.

As to `COc1cc2ncn(C(=O)OC(C)(C)C)c2cc1Nc1cc(NC(=O)C2CC2)ncn1` [Compound 61, 3-tert-butoxycarbonyl-5-(6-cyclopropionamidopyrimidin-4-ylamino)-6-methoxybenzimidazole], the 50% inhibitory concentration (IC50) was 594 nM.

As to `CNc1cncnc1Nc1cc2cn[nH]c2cc1OC` [Compound 62, 5-(5-Methylaminopyrimidin-4-yl) amino)-6-methoxy-1H-indazole formate], the IC50 was found to be 75.3 nM.

As for `COc1cn2nccc2cc1Nc1cc(NC(=O)C2CC2)ncn1` [Compound 63, N-(6-((6-Methoxypyrazolo[1,5-a]pyridin-5-yl)amino)pyrimidin-4-yl)cyclopropanecarboxamide], the IC50 was determined as 97.1 nM.

In the case of `COc1cc2[nH]ncc2cc1Nc1ncncc1-c1nc2cccc(N3CCN[C@@H](C)C3)c2n1C` [Compound 64, 6-Methoxy-N-(4-{1-methyl-7-[(3S)-3-methylpiperazin-1-yl]-1H-benzimidazol-2-yl}pyrimidine-5-)-1H-indazol-5-amine], the IC50 was 437 nM.

As for `COc1cc2[nH]ncc2cc1Nc1cc(-n2ccnc2)ncn1` [Compound 65, N-(6-(1H-Imidazol-1-yl)pyrimidin-4-yl)-6-methoxy-1H-indazol-5-amine formate], the half-maximal inhibitory concentration (IC50) turned out to be 694 nM.

Take `COc1c(Nc2cc(N)ncn2)ccc2c1CNC2=O` [Compound 66, 5-((6-Aminopyrimidin-4-yl)amino)-4-methoxyisoindolin-1-one hydrochloride]: the IC50 was 38.5 nM.

Turning to `COc1c(Nc2cc(Nc3ncccn3)ncn2)ccc2c1CNC2=O` [Compound 69, 5-((6-(Pyrimidin-2-ylamino)pyrimidin-4-yl)amino)-4-methoxyisodihydroindol-1-one], the half-maximal inhibitory concentration (IC50) stood at 27.3 nM.

Turning to `COc1c(Nc2cc(Nc3ccncn3)ncn2)ccc2c1CNC2=O` [Compound 70, 5-((6-(Pyrimidin-4-ylamino)pyrimidin-4-yl)amino)-4-methoxyisodihydroindol-1-one], the IC50 amounted to 17 nM.

For the compound `COc1c(N)ncnc1Nc1ccc2c(c1OC)CNC2=O` [Compound 71, 5-((6-Amino-5-methoxypyrimidin-4-yl)amino)-4-methoxyisoindolin-1-one], the concentration for half-maximal inhibition (IC50) amounted to 128 nM.

With `COc1c(Nc2cc(NC(=O)C3CC3)ncn2)ccc2c1CN(C)C2=O` [Compound 72, 5-((6-(Cyclopropionamido)pyrimidin-4-yl)amino)-4-methoxy-2-methylisodihydroindol-1-one], the IC50 worked out at 30.5 nM.

With `COc1c(Nc2cc(NC(=O)C3CC3)ncn2)ccc2c1C(C)(C)N(C)C2=O` [Compound 73, 5-((6-(Cyclopropionamido)pyrimidin-4-yl)amino)-4-methoxy-2,3,3-trimethylisoindole-1-one], the IC50 is 188 nM.

Take `COc1cncnc1Nc1ccc2c(c1OC)CNC2=O` [Compound 74, 5-((5-Methoxypyrimidin-4-yl)amino)-4-methoxyisodihydroindole-1-one]: the half-inhibitory concentration (IC50) was 38.4 nM.

For the compound `COCCOc1cncnc1Nc1ccc2c(c1OC)CNC2=O` [Compound 75, 5-((5-(2-Methoxyethoxy)pyrimidin-4-yl)amino)-4-methoxyisodihydroindole-1-one], the concentration for half-maximal inhibition (IC50) turned out to be 34.4 nM.

In the case of `COc1c(Nc2ncncc2OCCN2CCOCC2)ccc2c1CNC2=O` [Compound 76, 5-((5-(2-(4-morpholin)ethoxy)pyrimidin-4-yl)amino)-4-methoxyisodihydroindol-1-one formate], the IC50 was 572 nM.

In the case of `COc1c(Nc2ncncc2OCCN(C)C)ccc2c1CNC2=O` [Compound 77, 5-((5-(2-(Dimethylamino)ethoxy)pyrimidin-4-yl)amino)-4-methoxyisodihydroindole-1-one dicarboxylate], the IC50 is 900 nM.

On to `COc1c(Nc2ncncc2OCCO)ccc2c1CNC2=O` [Compound 78, 5-((5-(2-Hydroxyethoxy)pyrimidin-4-yl)amino)-4-methoxyisoindolin-1-one], for which the 50% inhibitory concentration (IC50) was found to be 19.7 nM.

Turning to `COc1c(Nc2ncnc3[nH]ccc23)ccc2c1CNC2=O` [Compound 79, 5-((7H-Pyrrolo[2,3-d]pyrimidin-4-yl)amino)-4-methoxyisoindolin-1-one], the IC50 was determined as 20.9 nM.

For `COc1c(Nc2ncnc3[nH]cnc23)ccc2c1CNC2=O` [Compound 80, 5-((9H-Purin-6-yl)amino)-4-methoxyisoindolin-1-one], the half-inhibitory concentration (IC50) amounted to 11.7 nM.

On to `COc1c(Nc2ncnc3[nH]ncc23)ccc2c1CNC2=O` [Compound 81, 5-((1H-Pyrazolo[3,4-d]pyrimidin-4-yl)amino)-4-methoxyisoindolin-1-one], for which the IC50 came out at 103 nM.

Consider `CNc1cncnc1Nc1ccc2c(c1OC)CNC2=O` [Compound 82, 5-((5-Methylaminopyrimidin-4-yl)amino)-4-methoxyisodihydroindole-1-one formate], for which the half-maximal inhibitory concentration (IC50) was found to be 154 nM.

As for `COc1c(Nc2cc(Nc3ncccc3Cl)ncn2)ccc2c1CNC2=O` [Compound 83, 5-((6-((3-Chloropyridin-2-yl)amino)pyrimidin-4-yl)amino)-4-methoxyisoindolin-1-one], the half-inhibitory concentration (IC50) was determined as 96.6 nM.

In the case of `COc1c(Nc2cc(Nc3ccc(Cl)cn3)ncn2)ccc2c1CNC2=O` [Compound 85, 5-((6-((5-Chloropyridin-2-yl)amino)pyrimidin-4-yl)amino)-4-methoxyisoindolin-1-one], the 50% inhibitory concentration (IC50) worked out at 13.9 nM.

Consider `COc1c(Nc2cc(Nc3cccc(Cl)n3)ncn2)ccc2c1CNC2=O` [Compound 86, 5-((6-((6-Chloropyridin-2-yl)amino)pyrimidin-4-yl)amino)-4-methoxyisoindolin-1-one], for which the IC50 amounted to 18.5 nM.

With `COc1c(Nc2cc(Nc3cc(Cl)ccn3)ncn2)ccc2c1CNC2=O` [Compound 87, 5-((6-((4-Chloropyridin-2-yl)amino)pyrimidin-4-yl)amino)-4-methoxyisoindolin-1-one], the half-maximal inhibitory concentration (IC50) was 19.1 nM.
